Assays:
5-HT3 receptor = details: cantharidine blister base; cited from earlier work
5-HT3 receptors = details: isolated rabbit vagus nerve; cited from earlier work
behavioral activity = test: Studies A to D taken together (ethological and endocrinological tests); assay type: in vivo, mouse
Experimental: Male intruder mice show only low levels of social activity and high levels of defensive activity when introduced into the home cage of an individually housed adult male. Benzodiazepines and related drugs increase approaxh activities in this situation (Dixon 1982, Triangle 21: 95-105 (1982) Krsiak. M. Br. J. Pharmacol. 55: 141-150 (1975)). Compounds of formula I, in oral doses of 0.1 to 1 mg/kg increase approach oriented social activity.
Stretched attend postures in mice signify an ambivalent form of conflict which is inhibited by putative anxiolytics (Kaeserman HP Psychopharmacology (1986) 89: 31-37). Compounds of formula I, when given 2 hours before, reduce the duration of stretched attend postures to mice placed on a novel elevated platform.
Compounds of formula I reduce such stress-induced corticosterone at 1 mg/kg p.o. whilst doses from 0.1 to 0.3 increase plasma levels of this hormone.

migraine attack = details: slow i.v. injection of 10 mg; cited from earlier work

Structure (SMILES)	blockade of the action of serotonin on the C fibre action potential (5-HT3 receptors)	relative activity among the compounds of formula I (behavioral activity)	other results
CCN(CC)C(=O)[C@@H]1C=C2c3cccc4[nH]c(Br)c(c34)C[C@H]2N(C)C1 [its bromo derivative]			inhibition of the algesic action of serotonin (5-HT3 receptor): not inhibited
CCN(CC)C(=O)[C@@H]1C=C2c3cccc4[nH]c(Br)c(c34)C[C@H]2N(C)C1 [BOL -148]	not blocked		
CN1C2CCC1CC(=CC(=O)c1c[nH]c3ccccc13)C2 [compound E, Indol-3-yl-carbonyl-methylenyl-3-(8-methyl-8-azabicyclo[3.2.1]octane)]		most active	
CCN(CC)C(=O)[C@@H]1C=C2c3cccc4[nH]cc(c34)C[C@H]2N(C)C1 [lysergic acid diethylamide]			inhibition of the algesic action of serotonin (5-HT3 receptor): not inhibited
CCN(CC)CCNC(=O)c1cc(Cl)c(N)cc1OC [Metoclopramide]			effect on a migraine attack (migraine attack): immediate beneficial effect
CC[C@@H](CO)NC(=O)[C@@H]1C=C2c3cccc4c3c(cn4C)C[C@H]2N(C)C1 [methysergide]	not blocked		
CN1C2CCC1CC(=CC(=O)c1c[nH]c3ccccc13)C2 (single isomer, unassigned; (-)) [compound G, (-)-Indol-3-yl-carbonyl-methylenyl-3-(8-methyl-8-azabicyclo[3.2.1]octane)]		most active	
CSc1ccc2c(c1)C(N1CCN(C)CC1)Cc1ccccc1S2 (stereo not drawn) [metitepine]	not blocked		
CN1C2CCC1CC(=CC(=O)c1c[nH]c3ccccc13)C2 (single isomer, unassigned; (+)) [compound F, (+)-Indol-3-yl-carbonyl-methylenyl-3-(8-methyl-8-azabicyclo[3.2.1]octane)]		most active	

— patent publication US4826838A, “Analgesic carbocyclic and heterocyclic carbonylmethylene-and carbonylmethypipidines and-pyrrolidines” (Sandoz Ltd., priority 1985, dated 1989)
